Earlier results in PMC3501146 (ACS Chemical Biology, 2012).

System: Lactococcus lactis subsp. cremoris HP
Conditions: indicator strain L. lactis subsp. cremoris HP

MIC against L. lactis subsp. cremoris HP (nisin): 0.032 µM
Substance: nisin (ITSISLCTPGCKTGALMGCNMKTATCHCSIHVSK; not fully specified; Lantibiotic nisin-A; UniProt P13068 24-57, looked up)
